#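 Test compounds were applied to cells in 96-well plates for 48 hours at 5 doses. At the GI50, growth is halved. TGI denotes the concentration required for complete inhibition of growth.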
# Columns and labels:
# Assay in all cases: inhibition of tumour cell growth, NCI panel, 48 h
# [1] = tested on: 786-0 renal
# [2] = tested on: A498 renal
# [3] = tested on: A549 NSCLC
# [4] = tested on: ACHN renal
# [5] = tested on: BT-549 breast
# [6] = tested on: CAKI-1 renal
# [7] = tested on: CCRF-CEM leukemia
# [8] = tested on: COLO 205 colon
# [9] = tested on: DU-145 prostate
# [10] = tested on: EKVX NSCLC
# [11] = tested on: HCC-2998 colon
# [12] = tested on: HCT-116 colon
# [13] = tested on: HCT-15 colon
# [14] = tested on: HL-60(TB) leukemia
# [15] = tested on: HOP-62 NSCLC
# [16] = tested on: HOP-92 NSCLC
# [17] = tested on: HS 578T breast
# [18] = tested on: HT29 colon
# [19] = tested on: IGROV1 ovarian
# [20] = tested on: K-562 leukemia
# [21] = tested on: KM12 colon
# [22] = tested on: LOX IMVI melanoma
# [23] = tested on: M14 melanoma
# [24] = tested on: MALME-3M melanoma
# [25] = tested on: MCF7 breast
# [26] = tested on: MDA-MB-231 breast
# [27] = tested on: MDA-MB-435
# [28] = tested on: MDA-MB-468 breast
# [29] = tested on: MOLT-4 leukemia
# [30] = tested on: NCI-H226 lung
# [31] = tested on: NCI-H23 lung
# [32] = tested on: NCI-H460 lung
# [33] = tested on: NCI-H522 lung
# [34] = tested on: NCI/ADR-RES ovarian
# [35] = tested on: OVCAR-3 ovarian
# [36] = tested on: OVCAR-4 ovarian
# [37] = tested on: OVCAR-5 ovarian
# [38] = tested on: OVCAR-8 ovarian
# [39] = tested on: PC-3 prostate
# [40] = tested on: RPMI-8226 leukemia
# [41] = tested on: RXF 393 renal
# [42] = tested on: SF-268 CNS
# [43] = tested on: SF-295 CNS
# [44] = tested on: SF-539 CNS
# [45] = tested on: SK-MEL-2 melanoma
# [46] = tested on: SK-MEL-28 melanoma
# [47] = tested on: SK-MEL-5 melanoma
# [48] = tested on: SK-OV-3 ovarian
# [49] = tested on: SN12C renal
# [50] = tested on: SNB-19 CNS
# [51] = tested on: SNB-75 CNS
# [52] = tested on: SR leukemia
# [53] = tested on: SW-620 colon
# [54] = tested on: TK-10 renal
# [55] = tested on: U251 CNS
# [56] = tested on: UACC-62 melanoma
# [57] = tested on: UO-31 renal
compound,measurement,setting,value
CNc1nc2ccccc2n2c(-c3ccc(O)c(O)c3)cnc12,GI50,[1],0.113 µM
same,TGI,[1],21.5 µM
same,GI50,[2],20.7 µM
same,TGI,[2],61.6 µM
same,GI50,[3],< 0.01 µM
same,TGI,[3],> 35 µM
same,GI50,[4],< 0.01 µM
same,TGI,[4],20.9 µM
same,GI50,[5],< 0.01 µM
same,TGI,[5],1.16 µM
same,GI50,[6],< 0.01 µM
same,TGI,[6],22.2 µM
same,GI50,[7],< 0.01 µM
same,TGI,[7],1.77 µM
same,GI50,[8],0.128 µM
same,TGI,[8],1.56 µM
same,GI50,[9],< 0.01 µM
same,TGI,[9],> 33.9 µM
same,GI50,[10],< 0.0207 µM
same,TGI,[10],32.7 µM
same,GI50,[11],< 0.01 µM
same,TGI,[11],15 µM
same,GI50,[12],< 0.01 µM
same,TGI,[12],0.963 µM
same,GI50,[13],< 0.01 µM
same,TGI,[13],31.3 µM
same,GI50,[14],< 0.01 µM
same,TGI,[14],< 0.01 µM
same,GI50,[15],< 0.01 µM
same,TGI,[15],26.1 µM
same,GI50,[16],0.17 µM
same,TGI,[16],10.5 µM
same,GI50,[17],< 0.01 µM
same,TGI,[17],8.13 µM
same,GI50,[18],0.0367 µM
same,TGI,[18],1.64 µM
same,GI50,[19],< 0.01 µM
same,TGI,[19],18.9 µM
same,GI50,[20],< 0.01 µM
same,TGI,[20],> 100 µM
same,GI50,[21],< 0.01 µM
same,TGI,[21],26.3 µM
same,GI50,[22],< 0.01 µM
same,TGI,[22],13.7 µM
same,GI50,[23],< 0.01 µM
same,TGI,[23],2.83 µM
same,GI50,[24],< 0.01 µM
same,TGI,[24],19.3 µM
same,GI50,[25],< 0.01 µM
same,TGI,[25],> 38.5 µM
same,GI50,[26],< 0.01 µM
same,TGI,[26],< 0.0149 µM
same,GI50,[27],< 0.01 µM
same,TGI,[27],1.29 µM
same,GI50,[28],< 0.01 µM
same,TGI,[28],< 0.01 µM
same,GI50,[29],< 0.01 µM
same,TGI,[29],18.9 µM
same,GI50,[30],1.41 µM
same,TGI,[30],37.9 µM
same,GI50,[31],< 0.01 µM
same,TGI,[31],9.56 µM
same,GI50,[32],< 0.01 µM
same,TGI,[32],10.5 µM
same,GI50,[33],< 0.01 µM
same,TGI,[33],< 0.01 µM
same,GI50,[34],< 0.01 µM
same,TGI,[34],< 0.01 µM
same,GI50,[35],< 0.01 µM
same,TGI,[35],4.62 µM
same,GI50,[36],0.475 µM
same,TGI,[36],> 78.8 µM
same,GI50,[37],< 0.01 µM
same,TGI,[37],23.3 µM
same,GI50,[38],< 0.01 µM
same,TGI,[38],0.507 µM
same,GI50,[39],< 0.01 µM
same,TGI,[39],25.9 µM
same,GI50,[40],< 0.01 µM
same,TGI,[40],6.6 µM
same,GI50,[41],< 0.01 µM
same,TGI,[41],14.8 µM
same,GI50,[42],< 0.0226 µM
same,TGI,[42],54.7 µM
same,GI50,[43],< 0.011 µM
same,TGI,[43],1.74 µM
same,GI50,[44],< 0.01 µM
same,TGI,[44],< 0.01 µM
same,GI50,[45],< 0.01 µM
same,TGI,[45],5.75 µM
same,GI50,[46],< 0.01 µM
same,TGI,[46],23.3 µM
same,GI50,[47],< 0.01 µM
same,TGI,[47],0.0142 µM
same,GI50,[48],0.191 µM
same,TGI,[48],13.6 µM
same,GI50,[49],< 0.01 µM
same,TGI,[49],10.7 µM
same,GI50,[50],< 0.01 µM
same,TGI,[50],31.1 µM
same,GI50,[51],< 0.01 µM
same,TGI,[51],14.8 µM
same,GI50,[52],< 0.01 µM
same,TGI,[52],> 34 µM
same,GI50,[53],< 0.01 µM
same,TGI,[53],> 69.9 µM
same,GI50,[54],7.98 µM
same,TGI,[54],44.3 µM
same,GI50,[55],< 0.01 µM
same,TGI,[55],> 39.2 µM
same,GI50,[56],< 0.01 µM
same,TGI,[56],5.09 µM
same,GI50,[57],< 0.01 µM
same,TGI,[57],15.9 µM

# Source: PubChem BioAssay (NCI)
